Experimental data from patent publication US20100249179A1, “Farnesoid X Receptor Agonists” (SMITHKLINE BEECHAM CORPORATION, priority 2007, published 2010).
Read-outs that look alike come from different tables or passages of the source.

Legend:
[1] = biological target: T1, Human FXRα Ligand Binding Domain (Homo sapiens, UniProt Q96RI1); assay: FXR Cofactor Binding Assay (time resolved fluorescence, SRC-1 peptide recruitment); assay type: biochemical; settings: read-out: Activity (pEC50) (converted)
T1 construct: polyhistidine (pRSET-A vector leader) (N); made in house; host or cells: E. coli BL21 (DE3), pRSET-A vector
T1 sequence (Q96RI1 237-472 isoform Q96RI1-2): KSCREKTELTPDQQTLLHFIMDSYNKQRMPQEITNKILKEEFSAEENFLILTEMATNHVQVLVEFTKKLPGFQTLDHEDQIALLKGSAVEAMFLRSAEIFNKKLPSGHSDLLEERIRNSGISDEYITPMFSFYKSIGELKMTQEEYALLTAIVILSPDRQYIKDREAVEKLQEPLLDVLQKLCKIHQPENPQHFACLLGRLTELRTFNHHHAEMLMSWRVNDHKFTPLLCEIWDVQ
Text: Determination of a ligand mediated cofactor peptide interaction to quantify ligand binding to the nuclear receptor Farnesoid X Receptor (FXR). The method measures the ability of putative ligands to modulate the interaction between the purified bacterial expressed FXRα ligand binding domain (LBD) and a synthetic biotinylated peptide based on residues 676-700 of steroid receptor coactivator-1 (SRC-1) (LXXLL-containing domain-2 where L is the amino acid leucine and X indicates any other amino acid (LCD2), 676-700). The sequence of the SRC-1 peptide used is as published in Iannone, M. A., et al., 2001 Cytometry 44:326-337 where the N-terminus was biotinylated (B) and the C-terminus was amidated. Detection of the associated complex was measured by time resolved fluorescence (TRF). The purified LBD of FXR was labeled with biotin then mixed with stoichiometric amounts of allophycocyanin (APC) labeled streptavidin (Molecular Probes). The biotinylated peptide was then mixed with a ½ stoichiometric amount of europium labeled streptavidin (Wallac Inc). Each was then blocked with a 5 fold excess of biotin and allowed to equilibrate for 15 min. Equimolar amounts of receptor and peptide were mixed together and were allowed to equilibrate for at least 30 min prior to the addition to either a variable or constant concentrations of the sample for which the affinity is to be determined. After equilibration, the time-resolved fluorescent signal was quantitated using a fluorescent plate reader. The affinity of the test compound was estimated from a plot of fluorescence versus concentration of test compound added.
A basal level of FXR: peptide formation is observed in the absence of added ligand. Ligands that promote the complex formation induce a concentration-dependent increase in time-resolved fluorescent signal. Compounds which bind equally well to both monomeric FXR and to the FXR: peptide complex would be expected to give no change in signal, whereas ligands which bind preferentially to the monomeric receptor would be expected to induce a concentration-dependent decrease in the observed signal.
Advance Preparation: Human Farnesoid X Receptor α Ligand Binding Domain Human FXRα Ligand Binding Domain (FXRα LBD) was expressed in E. coli strain BL21 (DE3) as an amino-terminal polyhistidine tagged fusion protein. Expression was under the control of an isopropyl-β-D-thiogalactopyranoside (IPTG) inducible T7 promoter. DNA encoding this recombinant protein is subcloned into the pRSET-A expression vector (Invitrogen). The coding sequence of Human FXRα LBD was derived from Genbank accession number U 68233 (amino acids 237 to 472).
Ten-liter fermentation batches were grown in Rich PO4 media with 0.1 mg/mL Ampicillin at 25° C. for 12 hours, cooled to 9° C. and held at that temperature for 36 hours to a density of OD600=14. At this cell density, 0.25 mM IPTG is added and induction proceeded for 24 hours at 9° C., to a final OD600=16. Cells are harvested by centrifugation (20 minutes, 3500× gravity, 4° C.), and concentrated cell slurries were stored in phosphate buffered saline (PBS) at […].
Routinely, 30-40 g cell paste (equivalent to 2-3 liters of the fermentation batch) was resuspended in 200-250 mL Tris buffered saline (TBS), pH 7.2 (25 mM Tris-hydroxymethylamino methane (Tris), 150 mM sodium chloride). Cells were lysed by passing 3 times through a French Press and cell debris was removed by centrifugation (30 minutes, 20,000× gravity, 4° C.). The cleared supernatant was filtered through course pre-filters, and TBS, pH 7.2, 500 mM imidazole was added to obtain a final imidazole concentration of 50 mM. This lysate was loaded onto a column (6×8 cm) packed with Sepharose [Ni^++ charged] Chelation resin (Pharmacia) and pre-equilibrated with TBS pH 7.2/50 mM imidazole. After washing to baseline absorbance with equilibration buffer, the column was washed with one column volume of TBS pH 7.2 containing 90 mM imidazole. […]

[2] = test system: rodent models of hepatic fibrosis; settings: multiple rodent models; cited from earlier work
cultured HSCs = settings: cited from earlier work

Structure (SMILES) | EC50 ([1]; class symbols) [nM] | also measured
CC(C)c1onc(-c2c(Cl)cccc2Cl)c1COc1ccc(-c2csc3ccc(C(=O)O)cc23)cc1 [Example 9, 3-[4-({[3-(2,6-Dichlorophenyl)-5-(1-methylethyl)-4-isoxazolyl]methyl}oxy)phenyl]-1-benzothiophene-5-carboxylic Acid] | 1020 to 10000 | –
CC(C)c1onc(-c2c(Cl)cccc2Cl)c1COc1ccc(-c2ccc3oc(C(=O)O)cc3c2)cc1 [Example 4, 5-[4-({[3-(2,6-Dichlorophenyl)-5-(1-methylethyl)-4-isoxazolyl]methyl}oxy)phenyl]-1-benzofuran-2-carboxylic Acid] | < 100 | –
CC(C)c1onc(-c2c(Cl)cccc2Cl)c1COc1ccc(Sc2cccc3sc(C(=O)O)cc23)cc1 [Example 19, 4-{[4-({[3-(2,6-Dichlorophenyl)-5-(1-methylethyl)-4-isoxazolyl]methyl}oxy)phenyl]thio}-1-benzothiophene-2-carboxylic Acid] | 102 to 1000 | –
CCOC(=O)c1noc2cc(-c3ccc(OCc4c(-c5c(Cl)cccc5Cl)noc4C(C)C)cc3)ccc12 [Example 20, Ethyl 6-[4-({[3-(2,6-dichlorophenyl)-5-(1-methylethyl)-4-isoxazolyl]methyl}oxy)phenyl]-1,2-benzisoxazole-3-carboxylate] | – | EC50 ([1]; given as numeric bound): > 20000 nM
CC(C)c1onc(-c2c(Cl)cccc2Cl)c1COc1ccc(-c2ccc3c(c2)CCCC3C(=O)O)cc1 (centres unmarked) [Example 17, 6-[4-({[3-(2,6-Dichlorophenyl)-5-(1-methylethyl)-4-isoxazolyl]methyl}oxy)phenyl]-1,2,3,4-tetrahydro-1-naphthalenecarboxylic Acid] | 102 to 1000 | –
CC(C)c1onc(-c2c(Cl)cccc2Cl)c1COc1ccc(-c2ccc3sc(C(=O)O)cc3n2)cc1 [Example 10, 5-[4-({[3-(2,6-Dichlorophenyl)-5-(1-methylethyl)-4-isoxazolyl]methyl}oxy)phenyl]thieno[3,2-b]pyridine-2-carboxylic Acid] | 102 to 1000 | –
CC(C)c1onc(-c2c(Cl)cccc2Cl)c1COc1ccc(-c2ccc3c(=O)cc(C(=O)O)oc3c2)cc1 [Example 16, 7-[4-({[3-(2,6-Dichlorophenyl)-5-(1-methylethyl)-4-isoxazolyl]methyl}oxy)phenyl]-4-oxo-4H-chromene-2-carboxylic Acid] | 102 to 1000 | –
CC(C)c1onc(-c2c(Cl)cccc2Cl)c1COc1ccc(-c2ccc3c(C(=O)O)csc3c2)cc1 [Example 11, 6-[4-({[3-(2,6-Dichlorophenyl)-5-(1-methylethyl)-4-isoxazolyl]methyl}oxy)phenyl]-1-benzothiophene-3-carboxylic Acid] | < 100 | –
CC(C)c1onc(-c2c(Cl)cccc2Cl)c1COc1ccc(-c2ccc3c(C(=O)O)c[nH]c3c2)cc1 [Example 3, 6-[4-({[3-(2,6-Dichlorophenyl)-5-(1-methylethyl)-4-isoxazolyl]methyl}oxy)phenyl]-1H-indole-3-carboxylic Acid] | < 100 | –
CC(C)c1onc(-c2c(Cl)cccc2Cl)c1COc1ccc(Nc2cccc3ccc(C(=O)O)cc23)cc1 [Example 18, 8-{[4-({[3-(2,6-Dichlorophenyl)-5-(1-methylethyl)-4-isoxazolyl]methyl}oxy)phenyl]amino}-2-naphthalenecarboxylic Acid] | 102 to 1000 | –
CC(C)c1onc(-c2c(Cl)cccc2Cl)c1COc1ccc(-c2ccc3oc(C(=O)O)cc(=O)c3c2)cc1 [Example 14, 6-[4-({[3-(2,6-Dichlorophenyl)-5-(1-methylethyl)-4-isoxazolyl]methyl}oxy)phenyl]-4-oxo-4H-chromene-2-carboxylic Acid] | < 100 | –
CC(C)c1onc(-c2c(Cl)cccc2Cl)c1COc1ccc(-c2ccc3c(c2)CCC3(O)C(=O)O)cc1 (centres unmarked) [Example 7, 5-[4-({[3-(2,6-Dichlorophenyl)-5-(1-methylethyl)-4-isoxazolyl]methyl}oxy)phenyl]-1-hydroxy-2,3-dihydro-1H-indene-1-carboxylic Acid] | 102 to 1000 | –
CC[C@H]1[C@@H](O)[C@@H]2[C@H](CC[C@]3(C)[C@@H]([C@H](C)CCC(=O)O)CC[C@@H]23)[C@@]2(C)CC[C@@H](O)C[C@@H]12 [Example 6EtCDCA, 6-ethyl-chenodeoxycholic acid] | – | hepatic fibrosis [2]: prevent development and promote resolution; expression of fibrotic markers such as α-smooth muscle actin and α1(I) collagen (cultured HSCs): decreased
CC(C)c1onc(-c2c(Cl)cccc2Cl)c1COc1ccc(-c2ccc3[nH]c(C(=O)O)cc3c2)cc1 [Example 1, 5-[4-({[3-(2,6-Dichlorophenyl)-5-(1-methylethyl)-4-isoxazolyl]methyl}oxy)phenyl]-1H-indole-2-carboxylic Acid] | < 100 | –
CC(C)c1onc(-c2c(Cl)cccc2Cl)c1COc1ccc(-c2ccc3sc(C(=O)O)cc3c2)cc1 [Example 12, 5-[4-({[3-(2,6-Dichlorophenyl)-5-(1-methylethyl)-4-isoxazolyl]methyl}oxy)phenyl]-1-benzothiophene-2-carboxylic Acid] | 102 to 1000 | –
CC(C)c1onc(-c2c(Cl)cccc2Cl)c1COc1ccc(-c2ccc3c(c2)CC(C(=O)O)C3)cc1 (centres unmarked) [Example 6, 5-[4-({[3-(2,6-Dichlorophenyl)-5-(1-methylethyl)-4-isoxazolyl]methyl}oxy)phenyl]-2,3-dihydro-1H-indene-2-carboxylic Acid] | 102 to 1000 | –
CC(C)c1onc(-c2c(Cl)cccc2Cl)c1COc1ccc(-c2ccc3c(C(=O)O)cc(=O)oc3c2)cc1 [Example 15, 7-[4-({[3-(2,6-Dichlorophenyl)-5-(1-methylethyl)-4-isoxazolyl]methyl}oxy)phenyl]-2-oxo-2H-chromene-4-carboxylic Acid] | 102 to 1000 | –
CC(C)c1onc(-c2c(Cl)cccc2Cl)c1COc1ccc(-c2ccc3cc(C(=O)O)[nH]c3c2)cc1 [Example 5, 6-[4-({[3-(2,6-Dichlorophenyl)-5-(1-methylethyl)-4-isoxazolyl]methyl}oxy)phenyl]-1H-indole-2-carboxylic Acid] | 102 to 1000 | –
CC(C)c1onc(-c2c(Cl)cccc2Cl)c1COc1ccc(-c2ccc3c(C(=O)O)n[nH]c3c2)cc1 [Example 8, 6-[4-({[3-(2,6-Dichlorophenyl)-5-(1-methylethyl)-4-isoxazolyl]methyl}oxy)phenyl]-1H-indazole-3-carboxylic Acid] | 1020 to 10000 | –
CC(C)c1onc(-c2c(Cl)cccc2Cl)c1COc1ccc(-c2ccc3c(C(=O)O)c[nH]c3c2)cn1 [Example 13, 6-[6-({[3-(2,6-Dichlorophenyl)-5-(1-methylethyl)-4-isoxazolyl]methyl}oxy)-3-pyridinyl]-1H-indole-3-carboxylic Acid] | 102 to 1000 | –
CC(C)c1onc(-c2c(Cl)cccc2Cl)c1COc1ccc(-c2ccc3c(c2)C(C(=O)O)CC3)cc1 (centres unmarked) [Example 2, 6-[4-({[3-(2,6-Dichlorophenyl)-5-(1-methylethyl)-4-isoxazolyl]methyl}oxy)phenyl]-2,3-dihydro-1H-indene-1-carboxylic Acid] | 102 to 1000 | –
CC(C)c1onc(-c2c(Cl)cccc2Cl)c1COc1ccc(-c2nc3cccc(C(=O)O)c3[nH]2)cc1 [Example 21, 2-[4-({[3-(2,6-Dichlorophenyl)-5-(1-methylethyl)-4-isoxazolyl]methyl}oxy)phenyl]-1H-benzimidazole-4-carboxylic Acid] | 1020 to 10000 | –
